Assay results published in patent US20140235649A1, “USE OF PHOSPHATASE INHIBITORS OR HISTONE DEACETYLASE INHIBITORS TO TREAT DISEASES CHARACTERIZED BY LOSS OF PROTEIN FUNCTION” (LIXTE BIOTECHNOLOGY, INC., priority 2011, published 2014).
“Also recorded” adds a separate entry of the source.

Key:
[1] = tested on: beta-glucocerebrosidase (GBA); assay: GBA levels in human cells from Gaucher's disease type 1 / type 3 patients (Examples 2-4)
[2] = tested on: ΔSDHB-L65P; assay: ΔSDHB-L65P protein half-life through CHX treatment, Western blot, HeLa cells; format: cell-based, human
Description: Western blot analysis was performed as previously described with minor modifications (Zhuang et al, 2011). Microdissected tumor tissue and cell pellets were extracted for protein using RIPA lysis buffer supplemented with Halt proteinase inhibitor cocktail (Thermo Scientific, Rockford, Ill.). Protein was vortexed at 4° C. for 20 min and centrifuged in 12,000 g for 10 min at 4° C. Supernatant was collected and protein quantity was identified through a Bio-Rad (Hercules, Calif.) Protein Assay kit. Equal amount of proteins were separated on NuPAGE 4-12% Bis-Tris gel (Invitrogen, Carlsbad, Calif.) and transferred to PVDF membranes (Invitrogen). Membranes were blocked in 5% skim dried milk in PBST and blotted with primary antibody. Protein expression was identified through chemiluminescence kit (Thermo Scientific). The following antibodies were used: SDHA (1:1,000, Cell Signaling Technology, Beverly, Mass.), SDHB (1:1,000, Sigma-Aldrich, St. Louis Mo.), Flag (1:2,000, Origene, Rockville, Md.), Ubiquitin (1:1,000, Abcam, Cambridge, Mass.), HA (1:2,000, Origene), Hsp90 (1:1,000, Cell Signaling Technology) and β-Actin (1:1,000, Santa Cruz Biotechnology, Inc., Santa Cruz, Calif.).
HeLa cells were maintained in DMEM containing 10% FBS (Invitrogen). Cells were transfected with SDHB vectors by FuGENE 6 transfection reagent (Roche, Indianapolis, Ind.). Medium was changed 4 hours after transfection and cells were maintained 48 hours before cycloheximide (20 μg/mL, Sigma-Aldrich) treatment.
Ubiquitin-HA vector was described previously (Kamitani et al. (1997)). Human wild type SDHB gene was cloned into pCMV6-Entry vector (Origene). Hot spot missense mutations in SDHB related PHEOs/PGLs based on previous findings (Van Nederveen et al. (2006); Henderson et al. (2009); Pawlu et al. (2005)). Mutagenesis was performed based on wild type SDHB vector using a Quikchange Lightning Site-Directed Mutagenesis Kit (Agilent, Santa Clara, Calif.). For each mutant, the sequence of SDHB gene was verified through sequencing the entire coding region of the gene. Vectors were purified through PureLink HiPure Plasmid Maxiprep kit (Invitrogen) for transfection and cell free protein expression.

[3] = tested on: mutant SDHB protein; assay: Immunoprecipitation of mutant SDHB: ubiquitination and Hsp90 binding; format: cell-based, human; settings: immunoprecipitated ΔSDHB-R49Q (FIG. 14E)
Description: Protein was extracted from cell cultures using IP lysis buffer with Halt proteinase inhibitor cocktail (Thermo Scientific). Four hundred microgram of total protein was precipitated with Flag antibody (1:200, Origene) using a DynaBeads Protein G immunoprecipitation kit (Invitrogen). Proteins were precipitated overnight at 4° C. and eluted for Western blot analysis.

[4] = tested on: missense glucocerebrosidase; settings: previously found (REF); cited from earlier work
[5] = tested on: VHL protein; assay: VHL protein levels in tumor cells from VHL derived tumors (Examples 6-7); settings: Example 6, versus untreated cells
[6] = tested on: SDHB protein; assay: SDHB protein levels in tumor cells from SDHB derived tumors (Examples 9-10); settings: Example 9, versus untreated cells
[7] = tested on: ΔGBA-N370S; assay: Metabolic [35S] pulse chase assay, HeLa cells with ΔGBA-N370S vector; format: cell-based, human; settings: N370S mutant
Description: (§1) Human GBA gene was cloned into pCMV6-Entry vector (Origene; Rockville, Md.). Mutagenesis was performed using a QuikChange Lightning Site-directed mutagenesis kit (Agilent; Santa Clara, Calif.). Mutagenesis reaction was conducted using primers with N370S and L444P mutation sites. For each mutant, the sequence of GBA genes was verified by sequencing the entire coding regions.
(§2) Metabolic [^35S] pulse chase assay was performed as previously described with minor modifications (16). A total of 5×10^5 HeLa cells were transfected with GBA vectors through FuGene 6 transfection reagent (Roche; Indianapolis, Ind.). Cells were used for pulse chase assay 24 hr after transfection. Cells were starved in methionine-depleted medium for 15 min followed by 15 min labeling in methionine-free Delbecco's modified Eagle medium (DMEM) supplemented with 10% FBS and 0.2 mCi/mL [^35S]-methionine ([…] specific activity, Perkin Elmer). The cells were then chased in DMEM with 10% FBS and 3 mg/mL methionine. Cells were extracted for protein within various durations after radioactive labeling. Cells were lysed in RIPA lysis buffer containing with Halt proteinase inhibitor cocktail (Thermo; Waltham, Mass.). GBA proteins were purified through immunoprecipitation using 200 ug total lysate with Flag antibody (Origene; Rockville, Md.). Precipitated proteins were resolved on NuPAGE Novex 4-12% Bis-Tris Gel (Invitrogen; Carlesbad, Calif.) and measured by liquid scintillation counting. The gel was fixed and incubated in EN3HANCE (Perkin Elmer; Waltham, Mass.) for 45 min and dried for X-ray film exposure.

[8] = tested on: ΔGBA-L444P; assay: Metabolic [35S] pulse chase assay, HeLa cells with ΔGBA-L444P vector; format: cell-based, human; settings: L444P mutant
Description: as §1, §2

## CN1CCN(C(=O)C2C(C(=O)O)[C@H]3CC[C@@H]2O3)CC1 (stereo partly shown) [LB100]
[1]; Gaucher's disease type 1 and type 3 cells, 24 hours (Example 3, FIG. 1-3)
  GBA levels / amount of GBA: increased; also recorded: increased in all treatments, and the increase was not dose-dependent; also recorded: significantly higher than in untreated cells
[1]; Gaucher's disease type 3 cells, 24 hours (Example 2)
  GBA levels: significantly higher than in untreated cells

## O=C(CCCCCNC(=O)c1ccccc1S)Nc1ccccc1 [LB-201]
[2]; L65P mutant
  degradation / loss of mutant SDHB protein: slowed the degradation of mutant protein; also recorded: decreased the loss of mutant SDHB
[3]
  Hsp90 binding to mutant SDHB: also decreased
  SDHB mutant protein ubiquitination: decreased SDHB mutant protein ubiquitination
[4]
  co-translational degradation of missense glucocerebrosidase: protect missense glucocerebrosidase from co-translational degradation
[5]
  VHL levels: significantly higher than in untreated cells
  degradation of VHL: decreased degradation of VHL
[6]
  SDHB levels: significantly higher than in untreated cells
  degradation of SDHB: decreased degradation of SDHB

## CC1=C(O)C(=O)C=C2C1=CC=C1[C@@]2(C)CC[C@@]2(C)[C@@H]3C[C@](C)(C(=O)O)CC[C@]3(C)CC[C@]12C [celastrol]
[7]
  increase in radioactively labeled protein quantity: 33%
[8]
  increase in [35S]-GBA residue: 104%
[2]; L65P, after a 2 hr CHX treatment
  SDHB protein remaining intact: more than 50%
